The values that follow come from ChEMBL document CHEMBL1201862, “PubChem BioAssay data set” (2004).

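In this assay, cells in 96-well plates receive the compound at five concentrations for 48 hours. Endpoints are linearly interpolated between the surrounding concentrations. The concentration for 50% growth inhibition is given as GI50.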 Active and inactive are the calls of the source. Rule as the data show it: active = GI50 up to about 1.1 µM and inactive = higher.

Test systems include SK-MEL-5; KM12; HCT-15; SK-OV-3; ACHN; OVCAR-4; OVCAR-8; SNB-75; K562; SK-MEL-28; HL-60; SF-268; NCI-H522; Malme-3M; SW-620; EKVX; COLO 205; SF-295; M14.
Common to all, as to assay: NCI anticancer screen, dose series, 48 h

With `CC(=O)NC1=C(C)C(=O)c2c(nc3n2CCC3O)C1=N` (centres undefined), the GI50 is 13 µM (inactive) in the test with SK-MEL-5; 18.5 µM (inactive) with KM12; 19.2 µM with HCT-15; 28.2 µM (inactive) in the test on SK-OV-3; 16.3 µM (inactive) in the test with ACHN; 4.09 µM (inactive) in the test with OVCAR-4. The GI50 was 4.55 µM (inactive) with OVCAR-8; 26.2 µM (inactive) in the test on SNB-75; 8.67 µM (inactive) in the test on K562; 17.2 µM (inactive) in the test with SK-MEL-28; 4.49 µM (inactive) in the test with HL-60; 10.3 µM (inactive) in the test with SF-268. Besides, the GI50 with NCI-H522 is 6.75 µM (inactive); in the test with Malme-3M, 6.41 µM (inactive); in the test on SW-620 it was 13.3 µM (inactive); with EKVX, 21.1 µM (inactive); in the test on COLO 205 it was 18.9 µM (inactive); in the test with SF-295 it was 19.3 µM (inactive).
For the compound `Cc1nc(C(N)=S)sc1C(=O)CC(=O)C(=O)Nc1c(C(C)C)cccc1C(C)C`, the GI50 is 35.2 µM (inactive) with M14; 54.6 µM (inactive) in the test with SK-MEL-5; 40.7 µM (inactive) with KM12; 32.6 µM with HCT-15; 36 µM (inactive) in the test with SK-OV-3; 81.5 µM (inactive) in the test on ACHN. Besides, the GI50 was > 100 µM (inactive) in the test with OVCAR-4; 36 µM (inactive) in the test on OVCAR-8; 25.2 µM (inactive) with SNB-75; 24.3 µM (inactive) in the test with K562; > 100 µM (inactive) in the test on SK-MEL-28; 28 µM (inactive) with HL-60. For the same compound, the GI50 with SF-268 was > 100 µM (inactive); with NCI-H522, 18 µM (inactive); in the test with Malme-3M, 39.2 µM (inactive); in the test on SW-620, 48.9 µM (inactive); in the test on EKVX, > 100 µM (inactive); with COLO 205, 43.3 µM (inactive). Also, the GI50 in the test with SF-295 is 29.2 µM (inactive).
As to `COC(=O)/C(=N/NC(N)=O)C(C(=O)OC)C(=O)C(=O)Nc1ccc(Cl)cc1` (centres undefined), the GI50 was > 100 µM (inactive) in the test on M14; > 100 µM (inactive) with SK-MEL-5; > 100 µM (inactive) in the test with KM12; above 86.5 µM with HCT-15; > 100 µM (inactive) with SK-OV-3; > 100 µM (inactive) with ACHN. The GI50 was > 100 µM (inactive) with OVCAR-4; > 100 µM (inactive) in the test on OVCAR-8; > 100 µM (inactive) in the test on SNB-75; > 43.6 µM (inactive) in the test with K562; > 100 µM (inactive) with SK-MEL-28; > 76.2 µM (inactive) with HL-60. Moreover, the GI50 with NCI-H522, with Malme-3M, in the test with SW-620, in the test with EKVX, with COLO 205 and in the test with SF-295 was > 100 µM (inactive) throughout.
For the compound `C1CCC(N=C2N(C3CCCCC3)C(=NC3CCCCC3)N2C2CCCCC2)CC1`, the GI50 in the test on M14 was > 100 µM (inactive); with SK-MEL-5 it was > 100 µM (inactive); in the test with KM12, > 100 µM (inactive); with HCT-15, above 100 µM; in the test on SK-OV-3, > 100 µM (inactive); in the test with ACHN it was > 100 µM (inactive). Moreover, the GI50 in the test with OVCAR-4 is > 100 µM (inactive); in the test on OVCAR-8 it was > 100 µM (inactive); in the test with SNB-75, 20.9 µM (inactive); in the test with K562, > 100 µM (inactive); in the test with SK-MEL-28 it was > 100 µM (inactive); in the test on HL-60, > 100 µM (inactive). In addition, the GI50 in the test on SF-268, with NCI-H522, with Malme-3M, with SW-620, with EKVX and with COLO 205 was > 100 µM (inactive) throughout. Further, in the test on SF-295, the GI50 is > 100 µM (inactive).
Turning to `CCN(CC)C(=O)Cc1[nH][nH]c(=O)c1C(=O)N(CC)CC`, the GI50 in the test on M14 was > 100 µM (inactive); with KM12, > 100 µM (inactive); in the test on HCT-15, above 100 µM; with SK-OV-3, > 100 µM (inactive); in the test on ACHN, > 100 µM (inactive); in the test with OVCAR-4 it was > 100 µM (inactive). The GI50 in the test on OVCAR-8, in the test on SNB-75, in the test with K562, with SK-MEL-28, with HL-60 and in the test with SF-268 was > 100 µM (inactive) each time. Further, the GI50 with NCI-H522, in the test with Malme-3M, with SW-620, in the test with EKVX, in the test with COLO 205 and in the test with SF-295 was > 100 µM (inactive) in each case.
For the compound `O=Cc1ccccc1OCCOc1cc(OCCOc2ccccc2C=O)c(OCCOc2ccccc2C=O)cc1OCCOc1ccccc1C=O`, the GI50 was > 83.9 µM (inactive) with M14; > 100 µM (inactive) with SK-MEL-5; > 100 µM (inactive) in the test on KM12; above 66.2 µM in the test on HCT-15; > 82.4 µM (inactive) in the test on SK-OV-3; 47.3 µM (inactive) in the test with ACHN. Also, the GI50 with OVCAR-4 is 39.9 µM (inactive); in the test on OVCAR-8 it was 47.1 µM (inactive); in the test with SNB-75, 8.07 µM (inactive); in the test with K562, 50.4 µM (inactive); in the test on SK-MEL-28, > 100 µM (inactive); with HL-60 it was > 78.2 µM (inactive). Further, the GI50 in the test with SF-268 was 52.1 µM (inactive); in the test on NCI-H522, > 86.9 µM (inactive); in the test with Malme-3M, > 100 µM (inactive); with SW-620 it was 46.5 µM (inactive); with EKVX, 32.1 µM (inactive); with COLO 205, > 100 µM (inactive).
Take `CN(C)CCNC(=O)c1cc([N+](=O)[O-])cc2ccc(-c3ccccc3)nc12`: the GI50 was 33.7 µM (inactive) in the test with M14; 4.7 µM (inactive) in the test with SK-MEL-5; 7.94 µM (inactive) with KM12; 7.26 µM with HCT-15; 9.02 µM (inactive) in the test on SK-OV-3; 10.5 µM (inactive) with ACHN. The GI50 in the test on OVCAR-4 was 5.55 µM (inactive); in the test on OVCAR-8 it was 8.11 µM (inactive); in the test on SNB-75, 5.64 µM (inactive); with K562, 17.1 µM (inactive); with SK-MEL-28, 9.33 µM (inactive); in the test on HL-60, 7.29 µM (inactive). Besides, the GI50 in the test on SF-268 is 7.91 µM (inactive); in the test on NCI-H522, 3.85 µM (inactive); in the test on Malme-3M, 6.59 µM (inactive); with SW-620, 5.22 µM (inactive); in the test with EKVX it was 24.7 µM (inactive); in the test with COLO 205, 6.05 µM (inactive). Moreover, in the test with SF-295, the GI50 is 8.79 µM (inactive).
Regarding `O=c1[nH]c(=O)n(C2OC3COC2C3O)cc1F` (centres undefined), the GI50 with M14 is > 100 µM (inactive); in the test on SK-MEL-5, > 100 µM (inactive); in the test with KM12, > 100 µM (inactive); in the test with HCT-15, above 100 µM; with SK-OV-3, 48.1 µM (inactive); in the test on ACHN, > 100 µM (inactive). Moreover, the GI50 in the test on OVCAR-4, in the test with OVCAR-8, in the test with SNB-75, in the test with K562, in the test with SK-MEL-28 and in the test on HL-60 was > 100 µM (inactive) each time. For the same compound, the GI50 in the test with SF-268, with NCI-H522, in the test with Malme-3M, in the test on SW-620, with EKVX and with COLO 205 was > 100 µM (inactive) in each case. The GI50 in the test on SF-295 is > 100 µM (inactive).
On to `c1ccc(C2=NOC3C4CCC(C4)C23)cc1` (centres undefined), for which the GI50 with M14 is > 100 µM (inactive); in the test with SK-MEL-5 it was > 100 µM (inactive); in the test on KM12, > 100 µM (inactive); with HCT-15, above 100 µM; with SK-OV-3, > 100 µM (inactive); in the test with ACHN, > 100 µM (inactive). For the same compound, the GI50 in the test on OVCAR-4, with OVCAR-8, in the test with SNB-75, in the test on K562, in the test on SK-MEL-28 and in the test on HL-60 was > 100 µM (inactive) in each case. Moreover, the GI50 with SF-268, in the test on NCI-H522, in the test on Malme-3M, in the test with SW-620, in the test with EKVX and in the test with COLO 205 was > 100 µM (inactive) throughout. In addition, in the test on SF-295, the GI50 was > 100 µM (inactive).
Take `COc1ccc(/C=C/C(=O)C(C)C)cc1`: the GI50 was 28.3 µM (inactive) with M14; 48.1 µM (inactive) in the test with SK-MEL-5; 33.6 µM (inactive) with KM12; 27.2 µM in the test on HCT-15; 31 µM (inactive) with SK-OV-3; 50.9 µM (inactive) with ACHN. In addition, the GI50 in the test with OVCAR-4 is 47.9 µM (inactive); in the test on OVCAR-8, 34.8 µM (inactive); with SNB-75, 40.6 µM (inactive); in the test with K562, 32.8 µM (inactive); in the test on SK-MEL-28, > 100 µM (inactive); with HL-60 it was 22.9 µM (inactive). Also, the GI50 in the test with SF-268 is 42.3 µM (inactive); in the test on NCI-H522 it was 20.6 µM (inactive); with Malme-3M it was 42 µM (inactive); with SW-620, 33 µM (inactive); in the test on EKVX, 45.3 µM (inactive); in the test with COLO 205, 40 µM (inactive). The GI50 with SF-295 was 31.6 µM (inactive).
Regarding `O=C(Nc1cccc(Cl)c1)C(=O)C(C(=O)c1ccc2ccccc2c1)C1OC(=O)c2ccccc21` (centres undefined), the GI50 in the test with M14 is 16 µM (inactive); with SK-MEL-5, 14.7 µM (inactive); with KM12, 22.6 µM (inactive); with HCT-15 it was above 10 µM; in the test on SK-OV-3, 24.6 µM (inactive); with ACHN, 25.4 µM (inactive). Also, the GI50 in the test with OVCAR-4 is 8.41 µM (inactive); with OVCAR-8 it was 13.9 µM (inactive); in the test with SNB-75, 5.31 µM (inactive); in the test on K562, 16.1 µM (inactive); in the test with SK-MEL-28, 9.62 µM (inactive); with HL-60, 9.16 µM (inactive). Besides, the GI50 in the test on SF-268 is 7.29 µM (inactive); with NCI-H522, > 10 µM (inactive); with Malme-3M, 13.1 µM (inactive); in the test with SW-620, 18.9 µM (inactive); with EKVX, 32.7 µM (inactive); in the test with COLO 205 it was 17.1 µM (inactive).
